Source: PMC12040169 (PLOS Biology, 2025)

test: in vitro; conditions: human, hela cells, % viability

Structure (SMILES)	viability at 28.5 h, 10 µM
COc1ccc(Cl)cc1S(=O)(=O)N(C)CC(=O)O [CBK269919]	97.1%
CCCCCNC(=O)NCCC1=CCCCC1 [CBK043796]	96.9%
COc1ccc(-c2ccc3nnc(SCc4cccnc4)n3n2)cc1 [CBK287680]	108%
O=C(Nc1cccc2c1CCCC2)c1cnc2n(c1=O)CCS2 [CBK287379]	105%
CCOc1cc(/C=N\NC(=O)CNc2ccccc2C)cc(Br)c1O [CBK262151]	86.5%
COc1ccc(NC(=O)c2cc(C(F)(F)F)cc(C(F)(F)F)c2)cn1 [CBK057634]	85.1%
CC1(C)CC(N2CN(C3CC(C)(C)NC(C)(C)C3)CN(C3CC(C)(C)NC(C)(C)C3)C2)CC(C)(C)N1 [CBK261985]	90.8%
CCCCn1c(SCC(=O)N(C)Cc2cnn(-c3ccccc3)c2)n[nH]c1=O [CBK296732]	106%
O=C(Nc1sc2c(c1C(=O)NCc1cccnc1)CCCC2)c1sc2ccccc2c1Cl [CBK266334]	95.9%
O=C(c1ccc(Nc2ccnc3cc(C(F)(F)F)ccc23)cc1)N1CCC(O)(c2cccc(C(F)(F)F)c2)CC1 [CBK012467]	91.6%
Cc1ccc(C2=CCN(CC(=O)Nc3ncc(C)s3)CC2)o1 [CBK283383]	90%
CC1(C)CC(NC(=O)c2cc3cccnc3[nH]2)CCO1 (centres unmarked) [CBK305467]	82.3%
Cn1cc(CN2CCOC(c3nc(C(C)(C)C)cs3)C2)nn1 (centres unmarked) [CBK304783]	90.5%
c1ccc(C(Oc2nccnc2-c2cccs2)c2ccccc2)cc1 [CBK107061]	112%
O=C(Nc1ccc2oc(-c3cccnc3)nc2c1)c1ccc(-c2ccccc2OC(F)(F)F)o1 [CBK263872]	86.5%
OCCNc1nc(-c2ccccc2)cn2ccnc12 [CBK066379]	97.6%
COC(=O)CN1C(c2ccccc2O)Nc2ccc(Br)cc2C1c1ccccc1 (centres unmarked) [CBK263133]	91.1%
CC(=O)Nc1ccc(NC(=O)C2COc3ccccc3O2)cc1C (centres unmarked) [CBK269898]	99.1%
O=C(CN1C(=O)COc2ccc(Cl)cc21)Nc1cccc(C(=O)O)c1 [CBK269667]	93.1%
Cc1noc(C)c1NC(=O)c1ccc2ccccc2n1 [CBK200309]	101%
O=S(=O)(NCc1cccc(F)c1)c1ccc(OC(F)(F)F)cc1 [CBK043379]	88.5%
C=CCn1c(SCC(=O)Nc2cccc(F)c2)nnc1-c1ccccc1O [CBK269620]	83%

Structure (SMILES)	viability at 28.5 h, 10 µM
c1ccc2c(c1)OCC(COc1ccnc(N3CCCN(CC4CCCCC4)CC3)n1)O2 (centres unmarked) [CBK083982]	115%
Cc1cc(C)n(CC(=O)NCCCn2ccnc2C(C)C)c(=O)n1 [CBK307185]	92.4%
CCNC(=O)C1(NC(=O)c2cn3ccccc3n2)CCCCC1 [CBK305240]	102%
CN1C[C@@H](NS(C)(=O)=O)C[C@H]1c1nc(-c2ccc3ccccc3c2)no1 [CBK288859]	106%
Cc1[nH]ncc1C(=O)N1CCn2cc(C(F)(F)F)nc2C1 [CBK282307]	87.7%
Cn1c(SCC(=O)c2ccc(O)c(O)c2)nnc1-c1ccccc1 [CBK262544]	81.5%
COc1ccc(OC)c(S(=O)(=O)N2CC[C@H]3CC(=O)N(CCN(C)C)CC[C@H]3C2)c1 [CBK288788]	104%
CCS(=O)(=O)N1CCC(c2onc3c2CCCCC3)CC1 [CBK284497]	93.5%
CCN(CC)C(=O)Cc1ccc(NC(=O)NCc2cnn(C)c2)cc1 [CBK304918]	111%
CC(NC(=O)Cc1cccc(F)c1)c1nc2cccnc2n1C(C)C (centres unmarked) [CBK283831]	98.5%
Cc1cc2c(cc1C)NC(CC(=O)Nc1ccc(N(C)C)cc1)C(=O)N2 (centres unmarked) [CBK265595]	85.8%
Cc1nn(C)c(C)c1CN1CCOC(c2nc(C(C)(C)C)cs2)C1 (centres unmarked) [CBK304170]	85.6%
CCOc1ccccc1NC(=O)c1cc(CC(C)C)oc1C [CBK057904]	101%
O=C1NCC2(C/C=C/CCOc3ccccc31)CCN(C(=O)Cc1cccc(F)c1)CC2 [CBK292015]	81%
Cc1cnc(CNS(=O)(=O)c2ccc(F)cc2)cn1 [CBK050489]	107%
CCOCCn1c(N2CCCC(C)C2)nc2c1c(=O)[nH]c(=O)n2C (centres unmarked) [CBK304304]	85.1%
COc1ccc(C(C)=O)cc1Cc1c(O)nc(SC)nc1O [CBK262699]	93.9%
O=C1CC[C@@H](NCc2ccccn2)[C@H](c2cc(F)cc(F)c2)N1 [CBK282911]	98.8%
CC(=O)Nc1nonc1-c1nc2ccccc2n1CCC#N [CBK062641]	100%
COc1ccccc1C1CCCN1Cc1c(C)nc2ccccn12 (centres unmarked) [CBK281995]	91.9%
Cn1c(CN2CCN(S(C)(=O)=O)CC2)nc2cc([N+](=O)[O-])ccc21 [CBK268362]	98.4%
CC(=O)NC[C@H]1CN(c2ccc3c(c2)CCN(C(C)=O)CC3)C(=O)O1 [CBK018491]	86.6%

Structure (SMILES)	viability at 28.5 h, 10 µM
Nc1nccc(-c2cc(OCC(F)(F)F)ccc2OCC(F)(F)F)n1 [CBK005948]	94.6%
COCCN(C(=S)Nc1ccc(C)cc1Cl)C(C)c1cccnc1 (centres unmarked) [CBK294472]	91.1%
COc1ccccc1-c1nnc(SCC(=O)Nc2nccs2)o1 [CBK287390]	107%
CC(=O)NC(c1ccccn1)C1CCCN(C(=O)C(C)(C)C)C1 (centres unmarked) [CBK285101]	91.6%
COc1ncc(-c2nccnc2N[C@H](C)c2ccccc2)c(OC)n1 [CBK036588]	83.7%
O=C(c1ccc2nc[nH]c2c1)N1Cc2ccccc2C1 [CBK200322]	103%
CC1(C)Sc2nc3ccccc3n2C1=O [CBK022971]	85.4%
O=C(c1ncoc1-c1ccc(F)cc1)N1CCOCC1 [CBK282362]	87.1%
Cc1cc(C)n(C2CCN(Cc3nc4ccccc4[nH]3)CC2)n1 [CBK281620]	103%
CCOc1ccc(C(=O)NC(=S)Nc2cccc(C(=O)O)c2C)cc1Br [CBK265100]	93.6%
O=C(COc1ccccc1)NCc1ccc(OC2CCNCC2)cc1 [CBK028425T]	98.2%
O=C(Nc1cccnc1)N1CCCC(CO)C1 (centres unmarked) [CBK156068]	92.4%
Cn1c(SCC(=O)Nc2cc(C(C)(C)C)no2)nnc1-c1ccc(C(C)(C)C)cc1 [CBK297133]	89.6%
Cc1cc(C)nc(-n2ncc3c2CC(c2cccs2)CC3=O)n1 (centres unmarked) [CBK269371]	107%
Cc1nc(N2CCOCC2)cc(N2CCN(C(=O)C3CCCC3)CC2)n1 [CBK307602]	87.5%
COc1cc(-c2nnc(NC(=O)c3ccc(C)cc3)o2)cc(OC)c1OC [CBK287699]	92.2%
Cc1cc(C)n2c(SCC(=O)c3ccccc3)nnc2n1 [CBK265378]	84.3%
O=C(c1cc(F)c(F)cc1F)N1CCC2(CCCN(Cc3ccc4ccccc4c3)C2)C1 (centres unmarked) [CBK131998]	97.8%
COc1cc(CNCc2cccnc2)ccc1OCc1cccs1 [CBK270082C]	86.7%
CC1(C)CC(=O)C=C(C(=O)NCc2cccs2)O1 [CBK153292]	97.5%
c1ccc(OCc2nn3c(Cn4cnc5ccccc54)nnc3s2)cc1 [CBK268446]	99.2%
O=c1c(N2CCCNCC2)nccn1CCOc1ccc(Br)cc1 [CBK028613T]	95%

Structure (SMILES)	viability at 28.5 h, 10 µM
O=C1NC2=C(C(=O)N(CC3CCCO3)C2)C(c2ccccc2)N1 (centres unmarked) [CBK283494]	100%
Clc1ccccc1-c1nccnc1NCc1cccs1 [CBK037362]	98.6%
COc1ccc(-c2ccccc2NS(=O)(=O)c2ccc3c(c2)CCC(=O)N3)cc1 [CBK286370]	96.8%
CN(C)c1ccc2cccc(O)c2n1 [CBK149729]	93.9%
CCOC(=O)c1cnc(N2CCOCC2)nc1NCCc1c[nH]c2ccccc12 [CBK093605]	106%
Cc1cc(C)cc(OC(C)C(=O)N2CCCc3c(cnn3C)C2)c1 (centres unmarked) [CBK285270]	82.1%
CCn1cc(C(=O)N2C[C@H](C(=O)OC)[C@@H](c3ccc(F)cc3)C2)cn1 [CBK283719]	89.7%
COc1cc(OC)cc(C(=O)N2CCC3(CC2)CC(=O)c2cc(F)cc(F)c2O3)c1 [CBK168089]	108%
CCn1cc(C2CN(S(=O)(=O)Cc3ccccc3)CCO2)cn1 (centres unmarked) [CBK304129]	106%
O=C(N/N=C\c1cccc(OC(=O)c2cccs2)c1)c1ccc([N+](=O)[O-])cc1 [CBK262289]	77.3%
O=C(O)c1cc(-c2ccc(/C=C3\SC(=S)N(Cc4cccnc4)C3=O)o2)ccc1Cl [CBK264712]	112%
COc1cccc(Oc2nccnc2-c2ccc(F)cc2)c1 [CBK106897]	93.5%
COc1ccc2[nH]c3c(c2c1)CCNC31CCN(CCCN2C(=O)C3CCCCC3C2=O)C1 (centres unmarked) [CBK059518]	88.9%
CNC(=S)N1CCN(c2nccnc2NS(=O)(=O)C2CC2)CC1 [CBK048905]	96.2%
CCCn1c(CN2CCN(CCO)CC2)nc2ccccc21 [CBK269363]	110%
Cc1nc2ccc(NC(=O)CC(c3ccccc3)c3ccccc3)cc2s1 [CBK293988]	90%
COc1ccc(CCNC(=O)c2ncoc2-c2cccs2)cc1 [CBK283663]	103%
C=CCNC(=O)N[C@H]1[C@H](O)[C@@H](N2CCC(C(=O)OC)CC2)[C@@H]2OC[C@H]1O2 [CBK288807]	82.1%
O=C(NCc1ccccc1)c1ccc(N2CCOCC2)nc1 [CBK200244]	96.3%
CCCOC(=O)c1c(NC(=O)c2cc(-c3ccccc3)nc3ccccc23)sc2c1CCC(C)C2 (centres unmarked) [CBK262647]	93.9%
CCn1c2ccccc2c2cc(NC(=O)CC(C)CC(=O)O)ccc21 (centres unmarked) [CBK300031]	103%
c1cc(C2CCCCN2Cc2ccc3[nH]ccc3c2)nc(Nc2nccs2)n1 (centres unmarked) [CBK286109]	83.6%

same assay, conditions: human, hela cells, % viability, bulk resorufin, single well

Structure (SMILES)	viability at 28.5 h, 10 µM
O=C1NC(=S)NC(=O)C1=CNCCc1c[nH]c2ccccc12 [CBK261124]	110%
